The test system of experiment [1] is Colo320 DM ecDNA+ and Colo320 HSR ecDNA− cells. Briefly: Sensitivity of Colo320 DM and Colo320 HSR to CHK1 inhibitors, seven days (FIG. 13). As to conditions: CHK2 or ATM inhibition. It counts as cell-based. As to the method: The sensitivity of an ecDNA+ cell line (Colo320 DM) compared with an ecDNA− cell line (Colo320 HSR) to four structurally distinct CHK1 inhibitors was determined.

Experiment [2] concerns ecDNA+ (Colo320 DM) and ecDNA− (Colo320 HSR) cells. In words: DNA fiber analysis, replication fork speed. As to conditions: 16 hr treatment. In kind it is cell-based. As to the method:
FIGS. 42A-42B show intrinsic replication fork dysfunction in ecDNA(+) cancer cells is further compromised by RNR inhibition relative to […]. […] The two cell models were then pulse-labeled with the thymidine analogues chlorodeoxyuridine (CldU) and iododeoxyuridine (IdU) for 30 min each (FIG. 42A). Cells were lysed, DNA fibers spread out and immunostained using specific antibodies against CldU and IdU. […] A difference of -0.13 kb/min in replication fork speed between ecDNA+ and […] treated with RNRi was observed. Statistical significance was calculated using nonparametric Kolmogorov-Smirnov test. FIGS. 43A-43B show intrinsic replication fork dysfunction in ecDNA+ cancer cells is further compromised by CHK1 inhibition relative to […]. […] The two cell models were then pulse-labeled with the thymidine analogues chlorodeoxyuridine (CldU) and iododeoxyuridine (IdU) for 30 min each (FIG. 43A). Cells were lysed, DNA fibers spread out and immunostained using specific antibodies against CldU and IdU.

The test system of experiment [3] is Colo320 ecDNA+ (COLO320 DM) and Colo320 ecDNA− (COLO320 HSR) cells. Briefly: Sensitivity of Colo320 ecDNA+ and ecDNA− cells to RNR inhibitors (FIG. 12). It counts as cell-based. As to conditions: for induction of replication stress marker, phosphorylation at serine positions 317 and 345 of CHK1: Colo320 DM and HSR cells.
For experiment [4], the system named is Colo320 DM (ecDNA+) and Colo320 HSR (ecDNA−) cells. Briefly: MTS cell proliferation assay, 7 days, Colo320 ecDNA+ vs ecDNA−. It counts as cell-based. As to the method: (§1) Sensitivity of an ecDNA+ (Colo320 ecDNA+) and an ecDNA− (Colo320 ecDNA−) cell line models to WEE1 inhibition was determined by treating each with increasing concentrations of either adavosertib or PD0166285 over a 7 day period. Cell proliferation was determined using a MTS assay (FIG. 27, top panels), while viability was determined using CellTiter-glo assay (FIG. 27 bottom panels).
(§2) Cell proliferation was determined using a MTS assay (FIG. 36, top panels), while viability was determined using CellTiter-glo assay (FIG. 36, bottom panels).
In general terms: Tetrazolium assays rely on reduction of a dye to a coloured formazan, in cell work by metabolically active cells.

Experiment [5] has as its system Colo320 ecDNA+ and Colo320 ecDNA− cells. Briefly: CellTiter-glo viability assay, 7 days, Colo320 ecDNA+ vs ecDNA−. It counts as cell-based. As to the method:
as §1, §2
For orientation: ATP-based viability assays read luminescence as a measure of living cells.

Experiment [6] deals with HeLa cells. In words: HeLa cell confluence by high-content microscopy over three weeks, with or without 100 nM methotrexate. It counts as cell-based. As to conditions: for cell growth (cell confluence), agent alone: 10 nM GDC-0575, 100 nM methotrexate, 300 nM-10 μM AZD6738. As to the method: Cell confluence was measured via high-content microscopy over the time course.
HeLa cells were treated with a WEE1 inhibitor, 0.01-0.3 μM adavosertib alone, with 1 nM-100 nM PD0166285, with 100 nM methotrexate alone, or with a combination of 0.01-0.3 μM adavosertib and 100 nM methotrexate or a combination of 1 nM-100 nM PD0166285 and 100 nM methotrexate over the course of three weeks. Cell confluence was measured via high-content microscopy over the time course.
HeLa cells were treated with a PARG inhibitor, 3-100 μM PD00017273 with (FIG. 35 top panel) or without (FIG. 35 bottom panel) 100 nM methotrexate over the course of 3 weeks. Cell confluence was measured via high-content microscopy over the time course.
Cell confluence was measured via high-content microscopy over the time course. […] However.

The subject of experiment [7] is SNU16 cells. Briefly: Long-term cell growth / resistance development in SNU16 cells. In kind it is cell-based, human. As to conditions: for cell growth / resistance formation: 9 weeks. As to the method:
Each treatment arm was terminated once the cell number reached 5×10^6.
SNU16 cells were subdivided into five groups and each group of 1×10^6 cells was subjected to treatment with 1 μM infigratinib, 1 μM erlotinib, 1 μM infigratinib and 1 μM erlotinib, 0.1 μM adavosertib and cell growth was recorded over 9 weeks.
SNU16 cells were subdivided into five groups and each group of 1×10^6 cells was subjected to treatment with infigratinib, erlotinib, PD00017273, infigratinib and erlotinib, or infigratinib and PD00017273 and cell growth was recorded over 9 weeks.
SNU16 (CRL-5974) cell line was purchased from ATCC. SNU16 cells were grown in RPMI 1640 medium (Fisher Scientific) with 10% FBS and 100 U/ml penicillin/streptomycin (Fisher Scientific). For the resistance experiments, SNU16 cells were plated at 2 million per T75 flask and were treated with either 1 μM infigratinib (Selleck Chemicals), 1 μM erlotinib (Selleck Chemicals), 10 nM gemcitabine (Sigma Aldrich), or a combination. The media was changed and fresh drug was added at least once per week. The cells were counted over the span of several weeks to measure cell growth.

Experiment [8] relates to infigratinib-resistant SNU16 cells. In words: Secondary resistance, cell growth of infigratinib-resistant SNU16 cells over 5 weeks. In kind it is cell-based, human. As to conditions: FIG. 26, 1 uM infigratinib, 1 uM erlotinib, 10 nM gemcitabine. As to the method:
The infigratinib-resistant SNU16 cells (generated as shown in FIG. 25) were subdivided into six groups and each group of 1×10^6 cells was subjected to treatment with 1 uM infigratinib, 1 uM erlotinib, 10 nM gemcitabine, or 1 uM erlotinib+10 nM gemcitabine and the cell growth was recorded over 5 weeks. Each treatment arm was terminated once the cell number reached 5×10^6.

“Also recorded” adds a separate entry of the source.

For `COc1cc2nc(-c3cc(F)ccc3O)nc(N[C@@H]3CNC[C@H]3C(C)(C)O)c2cc1OC` [CCT241533], the “differential sensitivity between the two lines” value in experiment [1] is listed as “neither inhibiting CHK2 with CCT241533 nor inhibiting DDR target, ATM, with AZD0156 revealed any differential sensitivity”.
With `COc1cccc(OCCCN)c1-c1cc(Nc2cnc(C#N)cn2)n[nH]1` [prexasertib], the “difference in replication fork speed between treated ecDNA+ and ecDNA− cells” value in experiment [2] is given as −0.1 kb/min.
With `NC(=O)NO` [hydroxyurea], the “induction of replication stress marker, phosphorylation at serine positions 317 and 345 of CHK1” value in experiment [3] is recorded as “induced the replication stress marker”. The ecDNA copy number entry in experiment [3] (ecDNA+ (Colo320 DM) cells, vs vehicle treated) is given as “markedly reduced”.
Turning to `C[C@@H]1COCCN1c1cc(C2([S@](C)(=N)=O)CC2)nc(-c2cc[nH]c3nccc2-3)n1` [AZD6738], the “sensitivity of Colo320 ecDNA+ compared with ecDNA− cells, proliferation changes” value in experiment [4] was “enhanced sensitivity”. In experiment [5], the “sensitivity of Colo320 ecDNA+ compared with ecDNA− cells, viability changes” value is “enhanced sensitivity”. For the same molecule, the “cell growth (cell confluence), agent alone” value in experiment [6] (three weeks) is recorded as “did not affect HeLa cell growth”. Further, in experiment [6] (with 100 nM methotrexate, 3 weeks), the “synthetic lethality with methotrexate” value is reported as “synthetic lethality”.
For the molecule `CCN(CC)CCOc1ccc(Nc2ncc3cc(-c4c(Cl)cccc4Cl)c(=O)n(C)c3n2)cc1` [PD0166285], in experiment [4], the “sensitivity of Colo320 ecDNA+ compared with ecDNA− cells, proliferation changes” value was “enhanced sensitivity”. The “sensitivity of Colo320 ecDNA+ compared with ecDNA− cells, viability changes” value in experiment [5] is listed as “enhanced sensitivity”. For the same molecule, in experiment [6] (in combination with 100 nM methotrexate, three weeks), the “development of methotrexate resistance” value was “abrogation of methotrexate resistance”.
`CN(C)CCCOc1ccc(-c2ccc3ncc4c(c3c2)n(C2CCOCC2)c(=O)n4C)cn1` [AZD0156]: the “differential sensitivity between the two lines” value in experiment [1] is on record as “neither inhibiting CHK2 with CCT241533 nor inhibiting DDR target, ATM, with AZD0156 revealed any differential sensitivity”.
Consider `C#Cc1cccc(Nc2ncnc3cc(OCCOC)c(OCCOC)cc23)c1` [erlotinib], for which the “cell growth / development of primary resistance” value in experiment [7] (FIG. 25, 12 weeks, 1 uM infigratinib, 1 uM erlotinib, 10 nM gemcitabine) is “no effect on cell growth on its own”. For the same molecule, the “cell growth / resistance formation” value is “no effect on cell growth on its own” in experiment [7] (FIG. 30, 1 μM infigratinib, 1 μM erlotinib, 0.1 μM adavosertib) and “little to no effect on cell growth” in experiment [7] (FIG. 34). The “cell growth / development of secondary resistance” value in experiment [8] was “delayed cell growth for the first two weeks, but the cells continued to grow quickly after that; also recorded: initially sensitive to EGFR inhibitor erlotinib but develop secondary resistance within three weeks”.
In the case of `Cc1ccc(F)c([C@@H](C)[C@H](NS(=O)(=O)c2ccc(Cl)cc2C(N)=O)c2n[nH]c(=O)o2)c1C` [compound 1, 5-chloro-2-(n-((1S,2R)-2-(6-fluoro-2,3-dimethylphenyl)-1-(5-oxo-4,5-dihydro-1,3,4-oxadiazol-2-yl)propyl)sulfamoyl)benzamide], the “induction of replication stress marker, phosphorylation at serine positions 317 and 345 of CHK1” value in experiment [3] is “induced the replication stress marker”.
With `CN(Cc1cnc2nc(N)nc(N)c2n1)c1ccc(C(=O)N[C@@H](CCC(=O)O)C(=O)O)cc1` [methotrexate], the “cell growth (cell confluence), agent alone” value in experiment [6] (three weeks) is “initially resulted in little to no cell growth, but after two weeks in culture, the cells began to develop resistance and cell growth resumed”.

Values taken from patent US11642345B2, “Replication stress pathway agent compositions and methods for treating cancer” (Boundless Bio, Inc., priority 2020, dated 2023).
